Columns and labels:
[1] = test system: brain-specific receptors (benzodiazepine binding); experiment: Inhibition of the binding of 3H-benzodiazepine to brain-specific receptors of rats; set-up: species or system rat (Wistar); conditions: 3H-diazepam (1.5 nM) or 3H-flunitrazepam (1.0 nM), rat cortex P2 fraction, pH 7.4, 30 minutes in ice; 12% or more = active; test concentration not given
Excerpt: Still another test utilized for the determination of anxiolytic activity is the measurement of the ability of a test compound to inhibit the binding of tritiated benzodiazepines to brain-specific receptors of mammals. A modification of the method described by R. F. Squires, et al., Nature, 266, No. 21:732 (April, 1977) and H. Mohler, et al., Science, 198:849 (1977) was employed.
Male albino rats (Wistar strain, weighing 150-200 g each) were used. The test compounds were solubilized in dimethylformamide, acetic acid, ethanol or hydrochloric acid.
Whole cortex of rats was homogenized gently in 20 volumes of ice-cold 0.32 M sucrose, centrifuged twice at 1000 g for 10 minutes and then recentrifuged at 30,000 g for 20 minutes to produce a crude P2 -synaptosomal fraction. The P2 -fraction was either: (1) resuspended in twice the original volume in hypotonic 50 mM Tris.HCl (pH 7.4), or (2) resuspended in one-half the original volume in hypotonic 10 mM Tris.HCl (pH 7.4) and frozen (-20° C.) until time of use. Frozen P2 preparations were thawed and resuspended in four times the original homogenizing volume at time of assay.
The binding assay consisted of 300 μl of the P2 -fraction suspension (0.2-0.4 mg protein), 100 μl of test drug and 100 μl of ^3 H-diazepam (1.5 nM, final concentration) or ^3 H-flunitrazepam (1.0 nM, final concentration) which was added to 1.5 ml of […] Tris.HCl (pH 7.4). Nonspecific binding controls and total binding controls received 100 μl of diazepam (3 μM final concentration) and 100 μl of deionized water, respectively, in place of the test compound. Incubation for 30 minutes proceeded in ice and was terminated by filtration, under vacuum, through glass fiber filters. The filters were washed twice with 5 ml of ice-cold 50 mM Tris.HCl (pH 7.4) and placed in scintillation vials. After drying at 50°-60° C. for 30 minutes, 10 ml of diluent was added and the radioactivity determined in a scintillation counter.
Inhibition of binding was calculated by the difference between total binding and binding in the presence of test compound, divided by the total binding, ×100. Physiological activity can be shown by a test compound that inhibits ^3 H-benzodiazepine binding by 12% or more.

[2] = test system: spontaneously hypertensive rats of the Okamoto strain; experiment: Reduction of mean arterial blood pressure in spontaneously hypertensive rats; format: in vivo, rat (Okamoto strain; conditions: 100 mg/kg or less by gavage, two doses 24 h apart; MABP at 28 hours; number of rats in parentheses in cell; untreated average 160±1.5 mm Hg
Description: Certain of the novel compounds of the present invention are active hypotensive agents at nontoxic doses when administered to mammals. These compounds were tested for hypotensive activity by the method of P. S. Chan and D. W. Poorvin, Clinical and Experimental Hypertension, 1 (6), 817-830 (1979). Male, 16 week old, spontaneously hypertensive rats of the Okamoto strain having an average mean arterial blood pressure of 160±1.5 mm of mercury are used in the test. One to three rats are used per test compound. A rat is dosed by gavage with a test compound, suspended in 2% pre-boiled starch at a concentration of 50 mg/ml, at a dose of 100 mg/kg of body weight or less, with 0.9% sodium chloride loading at a dose of 25 ml/kg of body weight. A second identical dose of the test compound, without sodium chloride loading is given 24 hours later. At 28 hours after the initial dose the mean arterial blood pressure is measured by the method of Chan and Poorvin vide supra. The procedure is repeated in a second and third rat when necessary.

[3] = test system: Wistar strain male rats (conflict procedure); experiment: Non-conditioned passive avoidance (conflict) procedure in rats; format: in vivo, rat (Wistar); conditions: 25 mg/kg, oral, 60 minutes before test
Description: Another test used to assess antianxiety effects is a non-conditioned passive avoidance procedure described by J. R. Vogel, B. Beer and D. E. Clody, "A Simple and Reliable Conflict Procedure for Testing Antianxiety Agents", Psychopharmacologia, 21:1-7 (1971). A conflict situation is induced in rats by a modification of this method.
Groups of 8 naive, Wistar strain male rats weighing 200-240 g each were deprived of water for 48 hours. The test compounds were administered in single or graded, oral doses, suspended in 2% starch with 5% polyethylene glycol in distilled water and one drop of polysorbate 80. Control animals received the vehicle alone. At 60 minutes each rat was placed in an individual clear plastic chamber. Tap water was available ad libitum from a nipple located in a black box off the main chamber. A 0.7 milliampere AC shocking current was established between the stainless steel grid floor and the tap. After 20 licks of non-shocked drinking, a 2 second shocking current was administered to the rat. This ratio of 20 licks of non-shocked drinking followed by a 2 second shock was continued for a total of 3 minutes. The number of shocks taken by each rat during the 3 minute interval was recorded and compared to a control group. […]

[4] = test system: rats (stress induced immobility); experiment: Stress Induced Immobility Test; format: in vivo, rat; conditions: 25 mg/kg intraperitoneally, 15 minutes at 44.5° C.; control 200 seconds
Description: The compounds of this invention are active as antidepressant agents in warm-blooded animals as evidenced by their results when tested in the Stress Induced Immobility Test. In this test, rats were confined on a warm (44.5° C.), but aversive, surface for 15 minutes. After 5-6 minutes, control rats began to show episodes of behavior where they remained flat and immobile for periods of time. The total duration of this behavior was timed. The average duration of immobility in the control rats was 200 seconds. The test compounds were administered intraperitoneally at 25 mg/kg of body weight. A compound was considered active if the maximum duration time was <100 seconds (less than 50% of the control value) in more than 50% of the rats.

[5] = test system: clonic seizures caused by pentylenetetrazole in rats; experiment: Protection against clonic seizures caused by pentylenetetrazole in rats; format: in vivo, rat; conditions: 25 mg/kg, oral or intraperitoneal; pentylenetetrazole 23 mg/kg i.v. at 30 or 60 minutes; active if >=50% protected
Description: The antianxiety properties of the novel compounds of the present invention have been established in a test which indicates anxiolytic activity by the measure of protection from convulsions resulting from the administration of pentylenetetrazole. Single or graded dose levels of the test compounds were administered orally or intraperitoneally in a 2% starch vehicle containing 0.5% v/v polyethylene glycol and one drop of polysorbate 80, or distilled water and one drop of polysorbate 80 to groups of at least 4 rats. At 30 or 60 minutes, the rats were treated intravenously with pentylenetetrazole at a dose of 23 mg/kg of body weight. This dose is estimated to cause clonic seizures in 99% of unprotected rats. The test compounds are considered active if they protect 50% or more of the rats from clonic seizures. It has been reported [R. T. Hill and D. H. Tedeschi, "Animal Testing and Screening Procedures in Evaluating Psychotropic Drugs" in "An Introduction to Psychopharmacology", pp. 237-288 (Eds. R. R. Rech and K. E. Moore, Raven Press, New York, 1971) that there is a high degree of correlation between antagonism of pentylenetetrazole seizures in rats and antianxiety effects in higher warm-blooded animals.

SMILES	% Inhibition of 3H-benzodiazepine binding [1] [%]	MABP/mm Hg (no. of rats) [2] [mm Hg]	also measured
CC(C)(C)C(=O)c1cnn2c1NCCC2 [2,2-Dimethyl-1-(4,5,6,7-tetrahydropyrazolo[1,5-a]pyrimidin-3-yl)-1-propanone]	28	114	–
FC(F)(F)c1cccc(C2=CCNc3c(Cl)cnn32)c1 [3-Chloro-4,5-dihydro-7-[3-(trifluoromethyl)phenyl]pyrazolo[1,5-a]pyrimidine]	63	–	–
N#Cc1cnn2c1NCCC2c1cccc(C(F)(F)F)c1 (stereo not drawn) [4,5,6,7-Tetrahydro-7-[3-(trifluoromethyl)phenyl]pyrazolo[1,5-a]pyrimidine-3-carbonitrile]	–	128	–
NC(=O)c1cnn2c1NCCC2 [4,5,6,7-Tetrahydropyrazolo[1,5-a]pyrimidine-3-carboxamide]	–	137	–
CN1CC=C(c2cccc(C(F)(F)F)c2)n2ncc(C#N)c21 [4,5-Dihydro-4-methyl-7-[3-(trifluoromethyl)phenyl]pyrazolo[1,5-a]pyrimidine-3-carbonitrile]	12	–	Result (no. of shocks per 3 min.) [3]: 19.0 no. of shocks per 3 min.
CC1=C(c2cccc(C(F)(F)F)c2)n2ncc(C#N)c2NC1 [4,5-Dihydro-6-methyl-7-[3-(trifluoromethyl)phenyl]pyrazolo[1,5-a]pyrimidine-3-carbonitrile]	–	–	Mean Duration (Seconds) of immobility [4]: 55.0 s
N#Cc1cnn2c1NCC=C2c1cccc(C(F)(F)F)c1 [4,5-Dihydro-7-[3-(trifluoromethyl)phenyl]pyrazolo[1,5-a]pyrimidine-3-carbonitrile]	15	–	–
NC(=O)c1cnn2c1NCC=C2c1cccc(C(F)(F)F)c1 [4,5-Dihydro-7-[3-(trifluoromethyl)phenyl]pyrazolo[1,5-a]pyrimidine-3-carboxamide]	–	108	–
CCOC(=O)c1cnn2c1NCC=C2c1cccc(C(F)(F)F)c1 [4,5-Dihydro-7-[3-(trifluoromethyl)phenyl]pyrazolo[1,5-a]pyrimidine-3-carboxylic acid, ethyl ester]	90	–	–
FC(F)(F)c1cccc(C2=CCNc3ccnn32)c1 [4,5-Dihydro-7-[3-(trifluoromethyl)phenyl]pyrazolo[1,5-a]pyrimidine]	48	–	–
N#Cc1cnn2c1NCC=C2c1ccccc1 [4,5-Dihydro-7-phenylpyrazolo[1,5-a]pyrimidine-3-carbonitrile]	20	–	–
NC(=O)c1cnn2c1NCC=C2c1ccccc1 [4,5-Dihydro-7-phenylpyrazolo[1,5-a]pyrimidine-3-carboxamide]	–	–	% of Rats Protected (against clonic seizures) [5]: 50%
CCOC(=O)c1cnn2c1NCC=C2c1ccccc1 [4,5-Dihydro-7-phenylpyrazolo[1,5-a]pyrimidine-3-carboxylic acid, ethyl ester]	54	–	–
Cc1nn2c(c1C(N)=O)NCC=C2c1cc(Cl)ccc1Cl [7-(2,5-Dichlorophenyl)-4,5-dihydro-2-methylpyrazolo[1,5-a]pyrimidine-3-carboxamide]	–	95	–
N#Cc1cnn2c1NCC=C2c1ccc(Cl)c(Cl)c1 [7-(3,4-Dichlorophenyl)-4,5-dihydropyrazolo[1,5-a]pyrimidine-3-carbonitrile]	12	–	–
CC1CC(c2cccc(Cl)c2)n2ncc(C#N)c2N1 (stereo not drawn) [7-(3-Chlorophenyl)-4,5,6,7,-tetrahydro-5-methylpyrazolo[1,5-a]pyrimidine-3-carbonitrile]	–	–	Mean Duration (Seconds) of immobility [4]: 75.4 s
CC1=C(c2cccc(Cl)c2)n2ncc(C#N)c2NC1 [7-(3-Chlorophenyl)-4,5-dihydro-6-methylpyrazolo[1,5-a]pyrimidine-3-carbonitrile]	–	–	Mean Duration (Seconds) of immobility [4]: 66.7 s
NC(=O)c1cnn2c1NCC=C2c1cccc(F)c1 [7-(3-Fluorophenyl)-4,5-dihydropyrazolo[1,5-a]pyrimidine-3-carboxamide]	39	–	–
CC1CC(c2ccc(Cl)cc2)n2ncc(C#N)c2N1 (stereo not drawn) [7-(4-Chlorophenyl)-4,5,6,7-tetrahydro-5-methylpyrazolo[1,5-a]pyrimidine-3-carbonitrile]	–	–	Mean Duration (Seconds) of immobility [4]: 4.7 s
O=C(c1ccccc1)c1cnn2c1NCCC2c1ccncc1 (stereo not drawn) [Phenyl[4,5,6,7-tetrahydro-7-(4-pyridinyl)pyrazolo[1,5-a]pyrimidin-3-yl]methanone]	22	125	–
O=C(c1ccccc1)c1cnn2c1NCC=C2c1cccc(C(F)(F)F)c1 [[4,5-Dihydro-7-[3-(trifluoromethyl)phenyl]pyrazolo[1,5-a]pyrimidin-3-yl]phenylmethanone]	76	122	% of Rats Protected (against clonic seizures) [5]: 75%; Result (no. of shocks per 3 min.) [3]: 19.1 no. of shocks per 3 min.

Source: US4847256A, “4,5-dihydro and 4,5,6,7-tetrahydropyrazolo(1,5-A)-pyrimidines” (American Cyanamid Company, priority 1986, dated 1989)
